Columns and labels:
UT-B = target: T1, UT-B (Mus musculus, UniProt Q8VHL0); experiment: Transepithelial urea transport in MDCK cells stably expressing UT-B; assay type: cell-based; details: phloretin 100 μM
T1 sequence (Q8VHL0 1-384): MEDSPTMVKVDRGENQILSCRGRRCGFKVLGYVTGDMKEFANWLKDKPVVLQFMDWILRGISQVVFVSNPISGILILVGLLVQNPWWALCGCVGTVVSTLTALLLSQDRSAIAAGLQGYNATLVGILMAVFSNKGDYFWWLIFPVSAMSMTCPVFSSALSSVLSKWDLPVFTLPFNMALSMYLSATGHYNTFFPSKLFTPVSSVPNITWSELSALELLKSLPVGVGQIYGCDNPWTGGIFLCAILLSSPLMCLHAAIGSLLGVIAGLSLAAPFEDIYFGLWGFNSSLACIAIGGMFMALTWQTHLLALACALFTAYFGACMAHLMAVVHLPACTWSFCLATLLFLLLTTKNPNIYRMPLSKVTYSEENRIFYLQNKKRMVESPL
Method: (§1) UT-B selectivity and cytotoxicity were studied. Because of sequence similarities between UT-B and UT-A isoforms, UT-A inhibition was measured. Transepithelial urea transport was measured in MDCK cells stably expressing UT-A1, UT-A3, and UT-B. UT-A1 and UT-A3 are cAMP-regulated urea transporters expressed in kidney tubule epithelia (see, e.g., Frohlich et al., Am. J. Physiol. Cell Physiol. 291:C600-606 (2006); Tickle et al., Am. J. Physiol. Regul. Integr. Comp Physiol 0.297: R323-329 (2009); Stewart et al., Am. J. Physiol. Renal Physiol. 292:F1157-63 (2006)). MDCK cells were cultured on collagen-coated porous filters for measurement of urea accumulation in the apical solution following addition of urea to the basolateral solution.
(§2) cDNAs encoding mouse UT-A3 and UT-B were cloned into pcDNA3.1 and used to generate stably transfected MDCK cell lines. MDCK cells stably expressing rat UT-A1 (MDCK-UT-A1) (see, e.g., Frohlich et al., supra) were obtained as described (see, e.g., Levin et al., FASEB J., supra). Cells were cultured in DMEM containing 10% FBS and 0.5 mg/mL G418. […] Urea flux in the basolateral-to-apical direction across unstimulated and forskolin-stimulated cell layers was measured in response to a 15-mM urea gradient. […]

UT-A3 = target: T2, UT-A3 (Mus musculus, UniProt Q8R4T9); experiment: Transepithelial urea transport in MDCK cells stably expressing UT-A3; assay type: cell-based; details: phloretin 100 μM
T2 construct: expressed in transfected cells
T2 sequence (Q8R4T9 1-461 isoform Q8R4T9-3): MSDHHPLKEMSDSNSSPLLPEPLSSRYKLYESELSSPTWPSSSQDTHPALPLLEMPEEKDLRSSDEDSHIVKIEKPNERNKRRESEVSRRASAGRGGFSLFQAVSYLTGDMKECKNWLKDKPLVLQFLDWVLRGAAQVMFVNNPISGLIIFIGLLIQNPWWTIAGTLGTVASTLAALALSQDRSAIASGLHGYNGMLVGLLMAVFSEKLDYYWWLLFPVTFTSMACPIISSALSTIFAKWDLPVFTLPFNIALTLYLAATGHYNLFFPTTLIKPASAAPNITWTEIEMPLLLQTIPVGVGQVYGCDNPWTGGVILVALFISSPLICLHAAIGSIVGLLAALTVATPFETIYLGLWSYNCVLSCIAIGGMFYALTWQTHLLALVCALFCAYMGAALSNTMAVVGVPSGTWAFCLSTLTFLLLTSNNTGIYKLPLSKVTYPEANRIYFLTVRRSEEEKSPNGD
Method: as §1, §2

UT-A1 = target: T3, UT-A1 (Rattus norvegicus, UniProt Q62668); experiment: Transepithelial urea transport in MDCK cells stably expressing UT-A1; assay type: cell-based; details: phloretin 100 μM
T3 construct: expressed in transfected cells; host or cells: MDCK cells (MDCK-UT-A1), obtained as described in cited literature
T3 sequence (Q62668 1-929): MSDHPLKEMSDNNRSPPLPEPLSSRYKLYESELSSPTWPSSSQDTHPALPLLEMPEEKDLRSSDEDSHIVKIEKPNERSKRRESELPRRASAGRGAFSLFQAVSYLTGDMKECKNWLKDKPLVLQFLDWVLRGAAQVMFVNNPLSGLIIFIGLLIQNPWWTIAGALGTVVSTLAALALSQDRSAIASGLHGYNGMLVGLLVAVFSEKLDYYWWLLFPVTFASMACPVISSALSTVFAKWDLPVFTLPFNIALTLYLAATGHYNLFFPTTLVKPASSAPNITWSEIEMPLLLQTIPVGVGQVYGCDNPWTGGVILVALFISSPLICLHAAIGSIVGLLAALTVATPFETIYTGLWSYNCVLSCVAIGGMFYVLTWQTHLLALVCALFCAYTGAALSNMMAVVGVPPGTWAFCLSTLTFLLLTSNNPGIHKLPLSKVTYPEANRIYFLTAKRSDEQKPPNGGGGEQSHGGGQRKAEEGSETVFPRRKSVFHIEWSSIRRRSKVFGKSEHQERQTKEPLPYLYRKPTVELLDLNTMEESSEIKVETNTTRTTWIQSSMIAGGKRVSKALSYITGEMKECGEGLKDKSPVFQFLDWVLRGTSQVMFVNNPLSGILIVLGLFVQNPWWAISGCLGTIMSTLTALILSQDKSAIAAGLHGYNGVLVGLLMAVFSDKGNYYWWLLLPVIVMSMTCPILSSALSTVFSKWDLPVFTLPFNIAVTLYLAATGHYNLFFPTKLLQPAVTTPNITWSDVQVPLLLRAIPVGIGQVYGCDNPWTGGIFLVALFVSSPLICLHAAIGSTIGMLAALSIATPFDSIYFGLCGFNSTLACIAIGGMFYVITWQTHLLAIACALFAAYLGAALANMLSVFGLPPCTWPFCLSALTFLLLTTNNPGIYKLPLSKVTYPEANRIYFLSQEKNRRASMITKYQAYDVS
Method: as §1, §2

UT = details: literature; cited from earlier work

For `O=C(CCc1ccc(O)cc1)c1c(O)cc(O)cc1O` [phloretin, reference compound], the “UT-facilitated urea transport (UT-B)” value (UT-B) was “inhibited”, the “UT-facilitated urea transport (UT-A3)” value (UT-A3) was “inhibited” and the “UT-facilitated urea transport (UT-A1)” value (UT-A1) was “inhibited”. The concentration exhibiting activity (UT) was greater than 0.5 mM.
